Measurements taken from ChEMBL document CHEMBL5223079, “Progress toward B-Cell Lymphoma 6 BTB Domain Inhibitors for the Treatment of Diffuse Large B-Cell Lymphoma and Beyond” (J Med Chem, 2021).
Converted amounts (≈) assume the structure as drawn. Values belong to the molecule of their own block, whether it stands above or below them.

Key:
[1] = Aqueous solubility of the compound; format: physicochemical; details: buffer
[2] = target: B-cell lymphoma 6 protein (Homo sapiens, UniProt P41182); experiment: Inhibition of human BCL6 […] domain
BCL-6/NCOR2 = BCL-6/NCOR2 (Homo sapiens, UniProt P41182); experiment: Inhibition of BCL6/SMRT protein protein interaction (unknown origin) by TR-FRET assay
[3] = Plasma clearance in Balb/C mouse at 1 mg/kg, po or 5 mg/kg, iv; format: ADME, organism-based; details: in vivo
[4] = Oral bioavailability in SCID mouse plasma at 10 mg/kg; format: ADME, organism-based; design: dose 10 mg/kg, route po
[5] = Oral bioavailability in SCID mouse plasma at 100 mg/kg; format: ADME, organism-based
SUD4 [6] = experiment: Antitumor activity against human SU-DHL-4 cells xenografted in mouse assessed as reduction in tumor weight at 5 mg/kg, iv treated every other day for 3 days; format: functional; design: scale not given: the % may be the effect or the level left; details: time 3 day
DOHH-2 = experiment: cells; details: Homo sapiens
Farage = experiment: cells; details: Homo sapiens
SUD4 [7] = experiment: Antitumor activity against CXCR4 human SU-DHL-4 cells xenografted in mouse assessed as increase in mRNA expression at 5 mg/kg, administered daily for 3days by RT-PCR analysis; format: functional
SUD4 [8] = experiment: Antitumor activity against CD69 human SU-DHL-4 cells xenografted in mouse assessed as increase in mRNA expression at 5 mg/kg, administered daily for 3days by RT-PCR analysis; format: functional
SUD4 [9] = experiment: Decrease in number of living cells in human SUDHL4 cells at […] incubated for 48 hrs by EdU flow cytometry assay (reference value: 48%); design: scale not given: the % may be the effect or the level left; details: dose 2.5 µM
SUD4 [10] = experiment: Antitumor activity against human SU-DHL-4 cells xenografted in mouse assessed as reduction in tumor volume at 5 mg/kg, iv treated every other day for 3 days; format: functional; design: scale not given: the % may be the effect or the level left; details: time 3 day
OCI-Ly7 = experiment: cells; details: Homo sapiens
[11] = Intrinsic clearance in mouse liver; format: ADME, tissue-based; details: read-out: CLH
SUD4 [12] = experiment: Antitumor activity against ATR human SU-DHL-4 cells xenografted in mouse assessed as increased in mRNA expression at 5 mg/kg, administered daily for 3days by RT-PCR analysis; format: functional
SUD4 [13] = experiment: Decrease in number of living cells in human SUDHL4 cells at 1.25 uM incubated for 48 hrs by EdU flow cytometry assay (reference value: 48%); design: scale not given: the % may be the effect or the level left
[14] = Intrinsic clearance in mouse microsomes; format: ADME, Microsome
[15] = Metabolic stability in human liver microsome assessed as half life; format: ADME; details: liver microsomes
Toledo = experiment: cells; details: Homo sapiens
SUD4 [16] = experiment: Decrease in number of living cells in human SUDHL4 cells at 0.625 uM incubated for 48 hrs by flow cytometry (reference value: 48%); design: scale not given: the % may be the effect or the level left
SUD4 [17] = experiment: cells; details: Homo sapiens, SU-DHL-4

Compound: Cn1c(=O)n(C)c2cc(Nc3ncccc3C#N)ccc21
solubility [1]: 300 µM (≈ 83.8 µg/mL)

Compound: N#Cc1c(NCc2ccccc2)ccnc1Cl
solubility [1]: 60 µM (≈ 14.6 µg/mL)

Compound: N#Cc1c(NCC2CC2)ccnc1Cl
solubility [1]: 300 µM (≈ 62.3 µg/mL)

Compound: Cn1c(=O)n(C)c2cc(Nc3cc(SCc4ccccc4)ncn3)ccc21
solubility [1]: < 30 µM

The next lines start with results.

IC50 [2]: ≤ 0.003 µM
Compound: CNC(=O)COc1cc2cc(Nc3nc(N4CCC(C(=O)N(C)C)CC4)ncc3Cl)cc(OC)c2n(C)c1=O

IC50 (BCL-6/NCOR2): 19 µM
Compound: COc1ccc(Nc2nc(NCC(C)C)ncc2F)cc1Cl

clearance [3]: 20 mL/min/kg
Compound: C[C@@H]1CN(c2ncc(Cl)c(Nc3ccc4c(c3)n(CCC(C)(C)O)c(=O)n4C)n2)C[C@H](C)C1(F)F

AUC [4]: 1.86 µM·h
Cmax [4]: 193 nM
IC50 [2]: ≤ 0.003 µM
Cmax [5]: 599 nM
Compound: CNC(=O)COc1cc2cc(Nc3nc(N4C[C@H](C)C[C@H](C)C4)ncc3Cl)ccc2n(C)c1=O

IC50 (DOHH-2): 1 µM
IC50 (Farage): 1 µM
IC50 (OCI-Ly7): 1 µM
CLint scaled [11]: < 38 mL/min/kg
microsomal CLint [14]: < 9.6 µL/min/mg
half-life [15]: > 1 h
IC50 (Toledo): 3.3 µM
IC50 (SUD4 [17]): 1 µM
Compound: COc1cc(Nc2nc(N3C[C@@H](C)N[C@@H](C)C3)ncc2F)ccc1NC(=O)c1ccc(C2=CCCC2)s1
Activity (SUD4 [6]): 70%
Activity (SUD4 [7]): >60%
Activity (SUD4 [8]): >150%
Activity (SUD4 [9]): 6.6%
Activity (SUD4 [10]): 60%
Activity (SUD4 [12]): >200%
Activity (SUD4 [13]): 13%
Activity (SUD4 [16]): 27%
